Laboratory results as given in patent publication US12084419B2, “Cell metabolism modulating compounds and uses thereof” (CRESCENTA BIOSCIENCES, priority 2020, dated 2024).

Target: T1, His6 tagged human recombinant FABP4 (Homo sapiens, UniProt P15090)
T1 construct: purchased Cayman Chemicals 10009549
Experiment: FABP4 TR-FRET assay: displacement of BODIPY FL C12 fatty acid
Details: triplicates, inhibition of BODIPY FL C12 binding; for inhibition at 1 µM: 1 μM compound; for inhibition at 10 µM: 10 μM compound
Description: Activity of compounds with FABP4 was profiled using a Terbium (Tb) based time resolved fluorescence energy transfer (TR-FRET) assay. The assay measures the compound mediated displacement of the fluorescent fatty acid BODIPY FL C12 (Thermo Fisher; catalog number D3822) from His6 tagged human recombinant FABP4 (His6-FABP4; Cayman Chemicals, catalog number 10009549) via recording the energy transfer from TB donor molecule on anti-His6-tag antibody to acceptor BODIPY moiety. Briefly, compounds were prepared at a concentration of 0.362 mM and 0.0362 mM, and BODIPY FL C12 was prepared at 4.2 μM, in DMSO. 1.2 μL of each compound or DMSO (vehicle control) and 1.2 μL of BODIPY FL C12 were added into the wells of a 384-well black polypropylene plate. His6-FABP4 and Tb anti-His6 antibody were prepared in the assay buffer (25 mM Tris/HCl, pH 7.4, 0.4 mg/ml y-globulins, 0.010% NP-40, 1 mM DTT) at a concentration of 83 nM and 49.6 nM, respectively. The protein and antibody solutions were then mixed at a ratio of 34:7 (v/v) and incubated on ice for 30 minutes. The assay was initiated by adding 41 μL of the resulting protein/antibody solution into the wells containing the compounds and BODIPY FL C12. The plate was centrifuged and incubated at room temperature for 10 min. The TR-FRET signals were recorded using an EnVision Multilabel plate reader (PerkinElmer; TB excitation 320 nm, BODIPY FL C12 emission 520 nm; TB emission 615 nm). Relative fluorescence ratio (520 nm*10,000/615 nm) were used to calculate the compound mediated inhibition of BODIPY C12 FL fatty acid binding to FABP4. […] Glucose consumption and FABP4 inhibition is shown below in Table 3 below.

T1 sequence (P15090 whole entry): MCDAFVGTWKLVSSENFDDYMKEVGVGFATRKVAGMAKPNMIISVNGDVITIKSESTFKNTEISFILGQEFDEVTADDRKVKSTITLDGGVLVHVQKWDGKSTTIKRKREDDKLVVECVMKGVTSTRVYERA

| SMILES | inhibition at 1 µM [%] | inhibition at 10 µM [%] |
| --- | --- | --- |
| CCCCC1CCCc2c1n(Cc1cccc(C(N)=O)c1)c1c(C(=O)O)cccc21 (stereo not drawn) [1-butyl-9-[(3-carbamoylphenyl)methyl]-2,3,4,9-tetrahydro-1H-carbazole-8-carboxylic acid] | 83 | 86.2 |
| CCCCC1CCCc2c1n(Cc1cccc(C#N)c1)c1c(C(=O)O)cccc21 (stereo not drawn) [1-butyl-9-[(3-cyanophenyl)methyl]-2,3,4,9-tetrahydro-1H-carbazole-8-carboxylic acid] | 58 | 93.7 |
| CCCCC1CCCc2c(n(Cc3cccc(C(N)=O)c3)c3c(C(=O)NCC(=O)O)cccc23)C1 (stereo not drawn) [2-({7-butyl-5-[(3-carbamoylphenyl)methyl]-5H,6H,7H,8H,9H,10H-cyclohepta[b]indol-4-yl}formamido)acetic acid] | 59 | 90.2 |
| CCCCC1CCCc2c(n(Cc3cccc(C#N)c3)c3c(C(=O)NCC(=O)O)cccc23)C1 (stereo not drawn) [2-({7-butyl-5-[(3-cyanophenyl)methyl]-5H,6H,7H,8H,9H,10H-cyclohepta[b]indol-4-yl}formamido)acetic acid] | 8.61 | 41 |
| CCCCC1Cc2c(n(Cc3cccc(C(N)=O)c3)c3c(C(=O)O)cccc23)C1 (stereo not drawn) [2-butyl-4-[(3-carbamoylphenyl)methyl]-1H,2H,3H,4H-cyclopenta[b]indole-5-carboxylic acid] | 87.2 | 95.2 |
| CCCCC1Cc2c(n(Cc3cccc(C#N)c3)c3c(C(=O)O)cccc23)C1 (stereo not drawn) [2-butyl-4-[(3-cyanophenyl)methyl]-1H,2H,3H,4H-cyclopenta[b]indole-5-carboxylic acid] | 62.1 | 85.1 |
| CCCCC1CCc2c(n(Cc3cccc(C(N)=O)c3)c3c(C(=O)O)cccc23)C1 (stereo not drawn) [2-butyl-9-[(3-carbamoylphenyl)methyl]-2,3,4,9-tetrahydro-1H-carbazole-8-carboxylic acid] | 88.5 | 95.5 |
| CCCCCCC1CCc2c(n(Cc3ccnc(OC)c3)c3c(C(=O)O)cccc23)C1 (stereo not drawn) [2-hexyl-9-[(2-methoxypyridin-4-yl)methyl]-2,3,4,9-tetrahydro-1H-carbazole-8-carboxylic acid] | 44.2 | 77.8 |
| CCCCCCC1CCc2c(n(Cc3ccccc3C)c3c(C(=O)O)cccc23)C1 (stereo not drawn) [2-hexyl-9-[(2-methylphenyl)methyl]-2,3,4,9-tetrahydro-1H-carbazole-8-carboxylic acid] | 87.4 | 83.2 |
| CCCCCCC1CCc2c(n(Cc3cccc(O)c3)c3c(C(=O)O)cccc23)C1 (stereo not drawn) [2-hexyl-9-[(3-hydroxyphenyl)methyl]-2,3,4,9-tetrahydro-1H-carbazole-8-carboxylic acid] | 77.9 | 93.1 |
| CCCCCCC1CCc2c(n(Cc3ccc(C)cc3)c3c(C(=O)O)cccc23)C1 (stereo not drawn) [2-hexyl-9-[(4-methylphenyl)methyl]-2,3,4,9-tetrahydro-1H-carbazole-8-carboxylic acid] | 74.3 | 88.5 |
| CCCCC1CCc2c1n(Cc1cccc(C(N)=O)c1)c1c(C(=O)O)cccc21 (stereo not drawn) [3-butyl-4-[(3-carbamoylphenyl)methyl]-1H,2H,3H,4H-cyclopenta[b]indole-5-carboxylic acid] | 96.8 | 98.5 |
| CCCCC1CCc2c1n(Cc1cccc(C#N)c1)c1c(C(=O)O)cccc21 (stereo not drawn) [3-butyl-4-[(3-cyanophenyl)methyl]-1H,2H,3H,4H-cyclopenta[b]indole-5-carboxylic acid] | 85.1 | 98.5 |
| CCCCC1CCc2c(c3cccc(C(=O)O)c3n2Cc2cccc(C(N)=O)c2)C1 (stereo not drawn) [3-butyl-9-[(3-carbamoylphenyl)methyl]-2,3,4,9-tetrahydro-1H-carbazole-8-carboxylic acid] | 92.4 | 97.2 |
| CCCCC1CCc2c(c3cccc(C(=O)O)c3n2Cc2cccc(C#N)c2)C1 (stereo not drawn) [3-butyl-9-[(3-cyanophenyl)methyl]-2,3,4,9-tetrahydro-1H-carbazole-8-carboxylic acid] | 35.8 | 81.1 |
